Values joined by “and” are separate entries in the source; they are usually repeats but may differ in a detail not shown here. Equal values may be shown once.
What was measured:
[1] = target: T1, WT VCP + Ufd1/Nploc4 (Mus musculus, UniProt Q01853); assay: Kinase-Glo ATPase assay, WT VCP with UFD1/NPLOC4 (UN); type: biochemical; conditions: for ATP consumed: WT VCP with UN
T1 construct: in the full-length recombinant VCP; His (N); made in house; host or cells: E. coli (VCP: BL21-CodonPlus (DE3)-RIL; UFD1 and NPLOC4: E. coli (DE3), purified by the MD Anderson core)
Procedure: (§1) Experiments with varied activator concentration and screening were measured using the Kinase-Glo Luminescent Kinase Assay (Promega). Reactions were incubated at 25°C for 1 hour then reduced to 4°C in a thermocycler consisting of 50 nM of recombinant VCP with or without 50 nM UFD1/NPLOC4 in 50 uL ATPase buffer (25 mM HEPES, pH 7.5, 100 mM NaCl, 10 mM MgCl2) at 2% DMSO with 62.5 μM ATP and a range of activator concentrations (Gibco, Sigma-Aldrich). Equal volumes of reaction and Kinase-Glo reagent were incubated for 20 minutes at room temperature in a 96 well white flat bottom plate (Corning). Luminescence was measured in a microplate reader (Spark 20M, Tecan).
(§2) Experiments with varied compound concentration were fit to a 3-parameter dose curve with asymmetric profile likelihood 95% confidence intervals in GraphPad Prism 9 (GraphPad). Experiments with varied ATP concentration were fit to a Michaelis-Menten model with asymmetric profile likelihood 95% confidence intervals. Significance was determined for experiments with fixed compound or fixed ATP concentration using a linear mixed-effects model.

[2] = target: T2, R159H VCP (Mus musculus, UniProt Q01853, R159H); assay: MESG-PNP ATPase assay, recombinant R159H VCP; type: biochemical; conditions: VCP Mutation R159H; replicate values
T2 construct: in the full-length recombinant VCP; His (N); made in house; host or cells: Escherichia coli BL21-CodonPlus (DE3)-RIL
Procedure: (§3) All other experiments were performed using the EnzCheck phosphatase assay kit (Molecular Probes). ATPase activity was measured in a 96-well flat bottom plate (Thermo Fisher Scientific). 50 nM VCP was incubated in 100 μL ATPase buffer with 2% DMSO with 25 μM compound and various ATP concentrations. The absorbance at 360 ± 5 nm was measured for more than 15 minutes at 25°C. Phosphate release was quantified based on a phosphate standard curve performed on the same plate. Initial enzyme velocity was determined by fitting the linear portion of the data to a linear regression model.
(§4) Figure S8. VCP activators variable effect on ATPase activity of MSP associated mutations in recombinant VCP. ATPase activity of 50 nM recombinant VCP protein was measured using an MESG-PNP assay upon treatment with 25 μM compound versus 2% DMSO control at 1mM ATP for WT (also shown in Fig. 5c), A232E, R155H, and R159H (n=3 with 3 technical replicated per experiment; points are expressed as beta ± SE, linear effects model: *P<0.05,**P<0.01; ***P<0.001; ****P<0.0001).

[3] = tested on: luciferase; assay: Luciferase counter assay: Kinase-Glo with 62.5 μM ATP without recombinant VCP; type: biochemical; conditions: for measured ATP consumed (nmol) without VCP: replicate values
Procedure: as §1
(A-D) Measured ATP as determined by a Kinase-Glo assay of 62.5μM ATP in the presence of increasing concentrations of compound without recombinant VCP present. (for all panels: n=3 with 4 technical replicates per experiment, points are expressed as beta ± SE, linear mixed effects model, P>0.05 for each […]
(1 picture or pasted object on this page, not shown here)

[4] = target: T3, R155H VCP (Mus musculus, UniProt Q01853, R155H); assay: MESG-PNP ATPase assay, recombinant R155H VCP; type: biochemical; conditions: VCP Mutation R155H; replicate values
T3 construct: in the full-length recombinant VCP; His (N); made in house; host or cells: Escherichia coli BL21-CodonPlus (DE3)-RIL
Procedure: as §3, §4

[5] = target: T4, A232E VCP (Mus musculus, UniProt Q01853, A232E); assay: MESG-PNP ATPase assay, recombinant A232E VCP; type: biochemical; conditions: VCP Mutation A232E; replicate values
T4 construct: in the full-length recombinant VCP; His (N); made in house; host or cells: Escherichia coli BL21-CodonPlus (DE3)-RIL
Procedure: as §3, §4

[6] = target: T5, recombinant WT VCP (Mus musculus, UniProt Q01853); assay: Kinase-Glo ATPase assay, recombinant WT VCP; type: biochemical; conditions: for ATP consumed: WT VCP no UN
T5 construct: in the full-length recombinant VCP; His (N); made in house; host or cells: Escherichia coli BL21-CodonPlus (DE3)-RIL
Procedure: as §1, §2

[7] = tested on: WT HeLa cells expressing GFP-TDP-4FL; assay: Flow cytometry of GFP-TDP-4FL integrated fluorescence, WT HeLa; type: cell-based; conditions: for Integrated Fluorescence WT (Normalized to CHX): replicate values
Procedure: Drug treatments were performed on neurons 7 days after lentiviral transduction and 14 days after neuronal induction. HeLa cells were collected using trypsin and pelleted at 1000g for 3 minutes. Cell pellets were resuspended in colorless DMEM (Invitrogen) supplemented with 2% FBS and filtered through a BD tube with cell strainer (BD Biosciences) for flow cytometry analysis on LSR II (BD Biosciences). Data analysis was performed on FlowJo v10 software. Integrated fluorescence intensity was determined by multiplying percent positive GFP and GFP median fluorescence values.

[8] = target: T5, recombinant WT VCP; assay: MESG-PNP (EnzCheck) phosphate release ATPase assay, WT VCP; type: biochemical; conditions: for ATPase activity v0/ET: 25 μM compound, replicate experiments
Procedure: as §3, §2

T2 sequence (Q01853 whole entry R159H): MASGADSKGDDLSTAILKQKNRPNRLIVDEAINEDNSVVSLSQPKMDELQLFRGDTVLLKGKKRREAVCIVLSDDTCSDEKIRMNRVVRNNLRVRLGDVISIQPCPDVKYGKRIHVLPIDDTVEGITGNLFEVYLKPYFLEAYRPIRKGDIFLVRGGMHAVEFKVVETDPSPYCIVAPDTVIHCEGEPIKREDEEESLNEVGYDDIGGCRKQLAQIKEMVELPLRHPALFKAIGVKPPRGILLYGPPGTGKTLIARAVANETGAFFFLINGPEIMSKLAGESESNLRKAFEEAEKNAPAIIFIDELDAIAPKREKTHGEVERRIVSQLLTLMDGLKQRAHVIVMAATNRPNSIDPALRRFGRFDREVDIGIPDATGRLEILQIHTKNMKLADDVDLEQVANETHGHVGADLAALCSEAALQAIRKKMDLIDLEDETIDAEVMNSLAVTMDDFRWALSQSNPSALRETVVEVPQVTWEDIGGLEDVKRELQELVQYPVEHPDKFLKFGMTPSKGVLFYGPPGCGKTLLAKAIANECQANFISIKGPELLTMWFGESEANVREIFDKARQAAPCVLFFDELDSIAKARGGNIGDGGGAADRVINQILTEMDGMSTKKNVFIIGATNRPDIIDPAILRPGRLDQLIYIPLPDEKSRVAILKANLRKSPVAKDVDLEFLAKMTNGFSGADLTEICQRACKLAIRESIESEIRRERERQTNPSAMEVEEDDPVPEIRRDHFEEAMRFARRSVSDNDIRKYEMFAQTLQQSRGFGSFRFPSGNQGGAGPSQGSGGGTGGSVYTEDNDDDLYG
T3 sequence (Q01853 whole entry R155H): as the sequence (Q01853 whole entry R159H) above, with R155H, H159R counted along it
T5 sequence (Q01853 whole entry): as the sequence (Q01853 whole entry R159H) above, with H159R counted along it
T1 sequence (Q01853 whole entry): as the sequence (Q01853 whole entry R159H) above, with H159R counted along it
T1 sequence (Q92890 whole entry partner): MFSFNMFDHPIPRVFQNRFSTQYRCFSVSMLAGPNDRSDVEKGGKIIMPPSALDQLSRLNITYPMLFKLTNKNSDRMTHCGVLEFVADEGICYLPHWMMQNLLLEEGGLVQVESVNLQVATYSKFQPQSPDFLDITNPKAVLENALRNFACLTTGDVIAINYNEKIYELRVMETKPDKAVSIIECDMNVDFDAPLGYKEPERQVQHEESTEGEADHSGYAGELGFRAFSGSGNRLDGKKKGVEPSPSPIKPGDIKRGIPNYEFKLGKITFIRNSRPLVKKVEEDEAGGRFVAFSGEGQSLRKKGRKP
T1 sequence (Q8TAT6 whole entry partner): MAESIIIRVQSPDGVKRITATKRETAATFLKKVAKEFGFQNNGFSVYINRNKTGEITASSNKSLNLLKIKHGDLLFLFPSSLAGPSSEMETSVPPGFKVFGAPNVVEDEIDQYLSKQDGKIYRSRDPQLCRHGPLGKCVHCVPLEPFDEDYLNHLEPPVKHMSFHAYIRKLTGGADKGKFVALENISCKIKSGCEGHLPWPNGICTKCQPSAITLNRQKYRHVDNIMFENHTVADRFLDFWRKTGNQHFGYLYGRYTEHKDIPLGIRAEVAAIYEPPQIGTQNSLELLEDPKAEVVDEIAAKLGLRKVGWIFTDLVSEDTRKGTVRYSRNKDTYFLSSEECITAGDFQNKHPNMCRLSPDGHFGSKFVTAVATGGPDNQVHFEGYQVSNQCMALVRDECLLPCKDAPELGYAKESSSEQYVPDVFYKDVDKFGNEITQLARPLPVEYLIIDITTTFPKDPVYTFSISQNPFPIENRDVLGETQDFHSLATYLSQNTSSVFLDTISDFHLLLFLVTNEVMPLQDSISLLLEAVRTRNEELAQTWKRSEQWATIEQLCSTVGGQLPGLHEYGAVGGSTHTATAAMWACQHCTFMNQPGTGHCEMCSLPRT
T4 sequence (Q01853 whole entry A232E): as the sequence (Q01853 whole entry R159H) above, with H159R, A232E counted along it

## Clc1ccc2[nH]c3c(N4CCC5(CC4)OCCO5)ncnc3c2c1 [UP158]
[1]
  change in EC50 with UN compared to without UN: significantly increased
  change in maximum percent activity with UN compared to without UN: stayed the same
[1]; WT VCP + Ufd1/Nploc4, 1:1 molar ratio
  EC50: 14.3 µM
[1]; 1.56 μM compound
  ATP consumed: 1.283 nmol and 1.271 nmol and 1.261 nmol
[1]; 3.13 μM compound
  ATP consumed: 1.368 nmol and 1.194 nmol and 1.381 nmol
[1]; 6.25 μM compound
  ATP consumed: 1.593 nmol and 1.386 nmol and 1.366 nmol
[1]; 12.5 μM compound
  ATP consumed: 1.674 nmol and 1.527 nmol and 1.645 nmol
[1]; 25 μM compound
  ATP consumed: 1.721 nmol and 1.705 nmol and 1.784 nmol
[1]; 50 μM compound
  ATP consumed: 1.865 nmol and 1.744 nmol and 1.853 nmol
[1]; 100 μM compound
  ATP consumed: 1.867 nmol and 1.844 nmol and 1.895 nmol
[2]
  ATPase activity, nmol Pi / nmol VCP / s: 1.332 nmol Pi / nmol VCP / s and 1.432 nmol Pi / nmol VCP / s and 1.240 nmol Pi / nmol VCP / s
[3]; 62.5 μM ATP, increasing concentrations of compound
  luciferase activity (measured ATP without VCP): did not inhibit luciferase activity
[3]; compound 6.25 μM
  measured ATP consumed (nmol) without VCP: 3.401 nmol and 3.236 nmol and 3.539 nmol and 3.366 nmol and 3.357 nmol and 3.469 nmol and 3.543 nmol and 3.577 nmol and 3.421 nmol and 3.118 nmol and 3.388 nmol
[3]; compound 12.5 μM
  measured ATP consumed (nmol) without VCP: 3.307 nmol and 3.430 nmol and 3.284 nmol and 3.618 nmol and 3.378 nmol and 3.515 nmol and 3.417 nmol and 3.480 nmol and 3.503 nmol and 3.589 nmol and 3.525 nmol and 3.323 nmol
[3]; compound 25 μM
  measured ATP consumed (nmol) without VCP: 3.304 nmol and 3.386 nmol and 3.409 nmol and 3.378 nmol and 3.414 nmol and 3.361 nmol and 3.370 nmol and 3.512 nmol and 3.476 nmol and 3.518 nmol and 3.523 nmol and 3.257 nmol
[3]; compound 50 μM
  measured ATP consumed (nmol) without VCP: 3.338 nmol and 3.481 nmol and 3.508 nmol and 3.447 nmol and 3.274 nmol and 3.450 nmol and 3.266 nmol and 3.477 nmol and 3.478 nmol and 3.313 nmol and 3.466 nmol and 3.330 nmol
[3]; compound 100 μM
  measured ATP consumed (nmol) without VCP: 3.162 nmol and 3.374 nmol and 3.402 nmol and 3.401 nmol and 3.130 nmol and 3.262 nmol and 3.295 nmol and 3.438 nmol and 3.458 nmol and 3.582 nmol and 3.728 nmol and 3.332 nmol
[4]
  ATPase activity, nmol Pi / nmol VCP / s: 1.189 nmol Pi / nmol VCP / s and 1.361 nmol Pi / nmol VCP / s and 1.473 nmol Pi / nmol VCP / s
[5]
  ATPase activity, nmol Pi / nmol VCP / s: 1.493 nmol Pi / nmol VCP / s and 1.756 nmol Pi / nmol VCP / s and 2.037 nmol Pi / nmol VCP / s
[6]; EC50 (μM) (95% CI), WT VCP without UN, 50 nM VCP, 62.5 μM ATP, 2% DMSO
  EC50: 2.41 µM
[6]; 0.78 μM compound
  ATP consumed: 1.347 nmol and 0.994 nmol and 1.148 nmol
[6]; 1.56 μM compound
  ATP consumed: 1.354 nmol and 1.059 nmol and 1.210 nmol
[6]; 3.13 μM compound
  ATP consumed: 1.498 nmol and 1.151 nmol and 1.481 nmol
[6]; 6.25 μM compound
  ATP consumed: 1.483 nmol and 1.304 nmol and 1.494 nmol
[6]; 12.5 μM compound
  ATP consumed: 1.656 nmol and 1.339 nmol and 1.428 nmol
[6]; 25 μM compound
  ATP consumed: 1.637 nmol and 1.369 nmol and 1.624 nmol
[6]; 50 μM compound
  ATP consumed: 1.715 nmol and 1.360 nmol and 1.703 nmol
[6]; 100 μM compound
  ATP consumed: 1.794 nmol and 1.361 nmol and 1.605 nmol
[6]; in vitro validation of 106 screen hits
  recombinant WT VCP ATPase activity: significantly increased
[6]; maximum, WT VCP without UN
  increase of VCP activity: 50%
[7]; 5μM compound with CHX
  Integrated Fluorescence WT (Normalized to CHX): 0.937 and 0.971 and 1.133 and 0.982 and 1.082 and 0.863
[7]; 20μM compound with CHX
  Integrated Fluorescence WT (Normalized to CHX): 1.023 and 1.038 and 1.143 and 1.051 and 0.869 and 0.804
[7]; MG132, then CHX with 5 or 20 μM activator
  clearance of GFP-TDP-4FL aggregates (integrated fluorescence): did not have a significant effect
[8]; 25 μM activator
  kcat (nmol Pi / nmol VCP / s) (95% CI): 0.356 (0.320, 0.396) nmol Pi / nmol VCP / s
[8]; 25 μM activator, versus DMSO
  increase in kcat: more than 50%
[8]; [ATP] 62.5 μM
  ATPase activity v0/ET: 0.191 nmol Pi / nmol VCP / s and 0.186 nmol Pi / nmol VCP / s and 0.163 nmol Pi / nmol VCP / s
[8]; [ATP] 125 μM
  ATPase activity v0/ET: 0.237 nmol Pi / nmol VCP / s and 0.241 nmol Pi / nmol VCP / s and 0.210 nmol Pi / nmol VCP / s
[8]; [ATP] 250 μM
  ATPase activity v0/ET: 0.277 nmol Pi / nmol VCP / s and 0.260 nmol Pi / nmol VCP / s and 0.266 nmol Pi / nmol VCP / s
[8]; [ATP] 500 μM
  ATPase activity v0/ET: 0.330 nmol Pi / nmol VCP / s and 0.296 nmol Pi / nmol VCP / s and 0.298 nmol Pi / nmol VCP / s
[8]; [ATP] 1000 μM
  ATPase activity v0/ET: 0.372 nmol Pi / nmol VCP / s and 0.331 nmol Pi / nmol VCP / s and 0.333 nmol Pi / nmol VCP / s

— publication PMC11257039, “VCP activator reverses nuclear proteostasis defects and enhances TDP-43 aggregate clearance in multisystem proteinopathy models” (The Journal of Clinical Investigation, 2024)
